Source: article PMC11145269 (Proceedings of the National Academy of Sciences of the …, 2024)
Like-named read-outs stand apart in the source and are kept apart here.

Key:
Assay in all cases: two-electrode voltage clamp, X. laevis oocytes
Type in all cases: cell-based
[1] = molecular target: T1, NALCN WT channel complex (+UNC79, UNC80, and FAM155A) (Homo sapiens, UniProt Q8IZF0)
T1 construct: codon-optimised human cDNAs in modified pcDNA3.1(+); four mRNAs 1:1:1:1 co-injected in Xenopus laevis oocytes; 7SX3 is the human channelosome structure used for modelling; with Protein unc-79 homolog; Protein unc-80 homolog; NALCN channel auxiliary factor 1

[2] = molecular target: T1, NALCN WT channel complex (+UNC79, UNC80, and FAM155A); details: buffer same
[3] = molecular target: T1, NALCN WT channel complex (+UNC79, UNC80, and FAM155A); details: buffer same; remark: listed apart in the source
[4] = molecular target: T1, NALCN WT channel complex (+UNC79, UNC80, and FAM155A); details: inhibition of outward and inward currents, E/Z isomer mixture, buffer same
[5] = molecular target: T2, NALCN WT channel complex (+UNC79, UNC80, and FAM155A) (Homo sapiens, UniProt Q8IZF0, M1145A); details: read-out: % inhibition at 300 μM (-100 mV)
T2 construct: codon-optimised human cDNAs in modified pcDNA3.1(+); four mRNAs 1:1:1:1 co-injected in Xenopus laevis oocytes; 7SX3 is the human channelosome structure used for modelling; with Protein unc-79 homolog; Protein unc-80 homolog; NALCN channel auxiliary factor 1

[6] = molecular target: T3, NALCN WT channel complex (+UNC79, UNC80, and FAM155A) (Homo sapiens, UniProt Q8IZF0, L588A/M1145A/W311A/Y1436A)
T3 construct: codon-optimised human cDNAs in modified pcDNA3.1(+); four mRNAs 1:1:1:1 co-injected in Xenopus laevis oocytes; 7SX3 is the human channelosome structure used for modelling; with Protein unc-79 homolog; Protein unc-80 homolog; NALCN channel auxiliary factor 1

[7] = read-out: % inhibition at 1 mM (+80 mV)
[8] = outward inhibited more than inward current
[9] = outward current inhibited, inward potentiated
[10] = read-out: % inhibition at 1 mM (-100 mV)

## CN(C)CCOC(c1ccccc1)c1ccccc1 [DPH, diphenhydramine]
[1]; [7]
  inhibition at 1000 µM: 60.3 ± 4.3%

## CN(C)CCCC1(c2ccc(F)cc2)OCc2cc(C#N)ccc21 (centres unmarked) [citalopram]
[2]; [8]
  % inhibition at 1 mM: three (hydroxyzine, promethazine, and citalopram) had a stronger inhibitory effect on the outward

## COc1ccc([C@@H]2Sc3ccccc3N(CCN(C)C)C(=O)[C@@H]2OC(C)=O)cc1 [diltiazem]
[3]; [9]
  % inhibition at 300 μM: three inhibited the outward and potentiated the inward currents (quinidine, diltiazem, and propafenone)

## COc1ccccc1CN[C@H]1C2CCN(CC2)[C@H]1C(c1ccccc1)c1ccccc1 [CP96345]
[3]; inhibition of outward current
  % inhibition at 300 μM: two selectively inhibited the outward (CP96345) or inward (lamotrigine) currents

## C=C[C@H]1CN2CC[C@H]1C[C@@H]2[C@@H](O)c1ccnc2ccc(OC)cc12 [quinidine]
[3]; [9]
  % inhibition at 300 μM: three inhibited the outward and potentiated the inward currents (quinidine, diltiazem, and propafenone)

## CCCNCC(O)COc1ccccc1C(=O)CCc1ccccc1 (centres unmarked) [propafenone]
[3]; [9]
  % inhibition at 300 μM: three inhibited the outward and potentiated the inward currents (quinidine, diltiazem, and propafenone)

## CCC(=C(c1ccc(O)cc1)c1ccc(OCCNC)cc1)c1ccccc1 (mixture of isomers) [(E/Z)-endoxifen]
[4]
  % inhibition at 100 μM: two (cetirizine and (E/Z)-endoxifen) inhibited both outward and inward currents

## O=C(O)COCCN1CCN(C(c2ccccc2)c2ccc(Cl)cc2)CC1 (centres unmarked) [cetirizine]
[2]; inhibition of outward and inward currents
  % inhibition at 1 mM: two (cetirizine and (E/Z)-endoxifen) inhibited both outward and inward currents

## O=C1NC(=O)C(c2ccccc2)(c2ccccc2)N1 [phenytoin]
[5]
  inhibition at 300 µM: 31 ± 9.2%
[6]; read-out: % inhibition at 300 μM (-100 mV)
  inhibition at 300 µM: 64.8 ± 6.7%

## NCCOB(c1ccccc1)c1ccccc1 [2-APB, 2-aminoethoxydiphenyl borate]
[1]; [10]
  inhibition at 1000 µM: 70.2 ± 8.2%
[6]; [10]
  inhibition at 1000 µM: 32.9 ± 12.9%

## CC(CN1c2ccccc2Sc2ccccc21)N(C)C (centres unmarked) [promethazine]
[2]; [8]
  % inhibition at 1 mM: three (hydroxyzine, promethazine, and citalopram) had a stronger inhibitory effect on the outward

## OCCOCCN1CCN(C(c2ccccc2)c2ccc(Cl)cc2)CC1 (centres unmarked) [hydroxyzine]
[2]; [8]
  % inhibition at 1 mM: three (hydroxyzine, promethazine, and citalopram) had a stronger inhibitory effect on the outward

## Nc1nnc(-c2cccc(Cl)c2Cl)c(N)n1 [lamotrigine]
[3]; inhibition of inward current
  % inhibition at 300 μM: two selectively inhibited the outward (CP96345) or inward (lamotrigine) currents

## CC(C)n1c(/C=C/C(O)CC(O)CC(=O)O)c(-c2ccc(F)cc2)c2ccccc21 (centres unmarked) [fluvastatin]
[2]; inhibition of inward current only
  % inhibition at 1 mM: one (fluvastatin) had no effect on the outward current, but inhibited the inward current efficaciously

## c1ccc(B(OB(c2ccccc2)c2ccccc2)c2ccccc2)cc1 [DPBA, diphenylborinic anhydride]
[1]; [7]
  inhibition at 1000 µM: 66.9 ± 4%
